Data: patent US20170296457A1, “PRODUCTS AND METHODS FOR TREATING PERIORBITAL DYSCHROMIA” (The Procter & Gamble Company, priority 2016, published 2017)

Test system: B16-F1 mouse melanoma cell line
Assay: B16 melanin synthesis inhibition assay
Format: cell-based
Details: B16-F1 cells, OD at 410 nm
Experimental: In this example, a commercially available B16-F1 mouse melanoma cell line from American Tissue Culture Collection, Virginia, USA was employed in a conventional melanin synthesis inhibition assay. The cell culture medium used in the assay is 500 mL of Dulbecco's Modified Eagle's Medium (DMEM), 50 mL Fetal Bovine Serum (FBS), and 5 mL of penicillin-streptomycin liquid. B16-F1 cells that are cultured in this medium and grown to greater than 90% confluency will synthesize melanin. While not intending to be bound by any theory, it is hypothesized that the melanin synthesis is stimulated by the culture medium and/or stress induced by growth to a high confluency. […] Equipment used in the assay include a CO2 incubator, such as a Forma Series Model 3110 by Therma Scientific, Massachusetts, USA; a hemocytometer, such as a Bright Line model by Hauser Scientific, Pennsylvania, USA; and a UV-Visible Spectrum Plate Reader, such as a SpectraMax250 from Molecular Devices, California, USA. […] Day 3: The cells from the T-150 flask are trypsinized, and the concentration of cells is determined using the hemacytometer. […] Read the 96 well plate using the UV-Vis Plate Reader at 410 nm to optically measure the amount of melanin produced between wells that are treated with the pumpkin seed extract and control wells that are not. […] The concentration of test agent needed to provide the IC 50 is recorded.

Oc1ccc(OC2CCCCO2)cc1 (stereo not shown) [Deoxyarbutin]
Concentration Needed for IC 50 (v/v): 0.008 v/v
